Test results published in patent US8334253B2, “Cosmetic and dermatological formulations of MNTF peptides” (Dermacare Neuroscience Institute, priority 2008, dated 2012).
Ends that are not written are not given here.

Columns and labels:
[1] = system: gamma interferon-induced NO production in epidermal keratinocytes; assay: Inhibition of gamma interferon-induced nitric oxide production in keratinocytes (Griess reaction); format: cell-based; conditions: positive control, aminoguanidine 10 mg/mL plus gamma interferon
From the text: The study method chosen is similar to that published in the reference Tsai et al. (Tsai et al, Inhibition of inflammatory nitric oxide production and epidermis damages by Saccharomycopsis Ferment Filtrate. J Dermatol Sci 2006 June 42 (3): 249-57. Laskin, Multifunctional Role of Nitric Oxide in Inflammation, Trends Endocrinol Metab 1994; 5:377-382. Lyons, Emerging Roiles of Nitric Oxide in Inflammation, Hospital Practice, Jul. 15, 1996: 69-86.)
The objective of the study was to investigate the inhibition effect of Pal-hexapeptide (SEQ ID NO: 2, in palmitylated form) on gamma interferon-induced NO production in epidermal keratinocytes in culture.
Anti-inflammatory effect was observed as a reduction of nitric oxide production in keratinocytes. Keratinocytes were incubated 48 hours with gamma-interferon (300 U/ml) alone (as control) or with gamma-interferon together with different concentrations (0.1 μM, 1 μM, 10 μM, 100 μM and 1000 μM) of Pal-hexapeptide. Gamma interferon plus aminoguanidine (10 mg/mL) was used as positive control. The amount of NO production was detected by Griess reaction. Nitric oxide readily oxides to nitrite in aqueous medium, and this reaction was measured as nitrite accumulation in the medium. […] The optical density of the wells were read using a Tibertek Mutiskan (MCC microplate reader at a wavelength of 540 nm, subtracting the absorbance at a reference wavelength of 620 nm.) A printout of the absorbance values was generated by the plate reader, and data were entered into an EXCEL spreadsheet for analysis. The average absorbance and standard deviations were expressed as percent of control absorbances.

[2] = system: UVA-bleaching of beta-carotene; assay: UVA bleaching of beta-carotene on forearm skin, Color Index by CHROMAMETER; format: in vivo, human; conditions: human forearm
Method: In-vivo method for assessing the protective effects of cosmetic products. Bleaching of carotenoids have been used to evaluate the auto-oxidation activity of natural products. The relative efficacy of scavengers of lipid peroxyl free radicals after application to the skin was assessed by measuring the UVA-bleaching of beta-carotene as a function of the energy exposure.
A CHROMAMETER colorimeter (TM, Minolta Model CR-300) was used to measure changes in color by expressing the color of measured surfaces numerically in L*a*b* color space which is a system recommended by the CIE (Commission Internationale de I'Eclairage) for skin color assessment. In this color space, L* is the luminance and gives the relative brightness from total black (L*=0) to total white (L*=100). The a* value represents the balance between the reds (positive values) and the greens (negative values). The b* value represents the balance between the yellows (positive values) and the blues (negative values). The b* value most closely describes the intensity of the orange color of the β-carotene stain and is in direct correlation with the Color Index, I. The CHROMAMETER provides a means by which oxidative damage caused by free radicals and, conversely, the prevention of oxidation by free radical scavengers, can be measured. Free radical oxidation induced by UVA radiation elicits a bleaching and reduction of color of beta-carotene stain. The bleaching and prevention of bleaching by a test material can be measured by the CHROMAMETER. Bleaching is reported as the change in b* versus UVA Irradiation Energy. It can also be expressed in terms of a Color Index, I, defined as: I=[(bn*−bi*)/(b0*−bi*)]×100 where, bn* is the value of b* measured after n J/cm^2 of irradiation of the area treated with the cosmetic formulation and painted with the β-carotene; b0* is the value of b* after application of the beta-carotene but before irradiation; and bi* is the value of b* before application of the beta-carotene. This index compensates for any effects of skin color on bn* and b0*. Bleaching will cause bn* value and I value (as a percentage) to decrease. Prevention of bleaching will result in higher I values or less reduction in I value when exposed to radiation.
The designated forearm of impaneled subjects was cleansed with a 70% isopropyl alcohol prep pad (Medium, Dynarex) and allowed to dry. Test sites were selected on the volar surface of the designated forearm of each subject, with each test site defined by the open, central area of a self-adhesive ring (Professional ProFoot™ Products, P.P.R. Co, Inc.). The adhesive side of the rings were placed directly on the skin. The rings were used to retain the test material and beta-carotene solution as well as to function as a guide for taking measurements with the CHROMAMETER.
Gel formulations (0.1% Pal-hexapeptide) and (0.1% hexapeptide) were applied to the forearm according to a randomized schedule. Additional sites were treated with a beta-carotene control, a positive control (internal control) and an untreated control. Treatment of the test sites were randomized for each subject.
Prior to application of the test materials or beta-carotene, the initial b* parameter was measured using the CHROMAMETER and recorded for all duplicate test sites of the forearm (Baseline). Approximately 2 mg/cm^2 of each material was applied to the designated test site and spread manually with a finger cot to ensure even distribution. Sites designated as untreated, with or without beta-carotene, remained untreated at this time. The test materials and internal control were allowed to incubate with the skin surface for a period of fifteen (15) minutes. After this incubation period, b* measurements were recorded for all sites (Product Baseline).
A solution of beta-carotene in a mixture of capric and caprylic triglycerides was applied to all treated sites. The b* parameter is again measured and recorded (beta-carotene Baseline). […]

[3] = system: cellular peroxide levels in human epidermal keratinocytes; assay: Cellular peroxide levels in keratinocytes, DCFH-DA dye and flow cytometry, with and without exogenous H2O2; format: cell-based
Method: Hydrogen peroxide can induce damages to skin cells. The dermal protective efficacy of Pal-hexapeptide was assessed by measuring basal peroxide levels in the presence and absence of the compound.
Basal peroxide production, generated by normal cellular metabolism, induce gradual development of low levels of peroxide-specific cellular fluorescence.
Extracellular peroxides (e.g., H2O2 added exogenously) can permeate the cell membrane and cause a rapid and dramatic increase in the peroxide-specific fluorescence of the cell. Cellular peroxides levels can be measured by flow cytometry using the peroxide-specific dye, 2′,7′-dichlorofluorescein diacetate (DCFH-DA). DCFH-DA is initially non-fluorescent and is rapidly concentrated within living cells by an enzyme-dependent process. […] The results of the assay indicates if a test compound functions as an oxidant or an anti-oxidant in a cellular system. If the test article functions as an anti-oxidant, this assay can also be used to determine if the test compound can permeate the cell membrane to quench intracellular peroxide or if it can only affect extracellular peroxide levels (Bass et al., 1983, J. Immunol. 130:1910-1917; Bombick et al., 1992, Toxicol. Meth. 2:255-264).
Human primary keratinocytes, generally on the third passage, were seeded in T75 flasks and cultured until 70-80% confluent. A cell suspension was created and these cells were loaded with the dye DCFH-DA. The pre-incubated cells were exposed to dilutions of the Pal-hexapeptide having the amino acid sequence SEQ ID NO: 2 in two triplicate sets per dilution. One triplicate set was incubated with H2O2 (exogenous source of peroxide), and both sets were stained with Propidium Iodide. Cell viability and peroxide production were determined by fluorescence readings on a FACScan flow cytometer. Peroxide value increases or decreases of 25% or more compared to vehicle control values are considered biologically significant.

Molecule | % Control (no H2O2), peroxide level ([3]; 0.1 mM, endogenous peroxide) [%] | % Control (with H2O2), peroxide level ([3]; 0.1 mM, exogenous H2O2 added) [%] | % Control (no H2O2), peroxide level ([3]; 1 mM, endogenous peroxide) [%] | % Control (with H2O2), peroxide level ([3]; 1 mM, exogenous H2O2 added) [%] | exogenous peroxide level (as defined by the 25% cutoff), in words ([3]; 1 mM, exogenous H2O2 added) | % Control (no H2O2), peroxide level ([3]; 10 mM, endogenous peroxide) [%] | endogenous peroxide level (as defined by the 25% cutoff), in words ([3]; 10 mM, endogenous peroxide) | % Control (with H2O2), peroxide level ([3]; 10 mM, exogenous H2O2 added) [%] | exogenous peroxide level (as defined by the 25% cutoff), in words ([3]; 10 mM, exogenous H2O2 added) | % Control (no H2O2), peroxide level ([3]; 0.01 mM, endogenous peroxide) [%] | % Control (with H2O2), peroxide level ([3]; 0.01 mM, exogenous H2O2 added) [%] | further results
N=C(N)NN [AG, aminoguanidine, reference compound] | – | – | – | – | – | – | – | – | – | – | – | nitric oxide production induced by Gamma-interferon, % of the control [1]: 42%; nitric oxide production induced by Gamma-interferon, % of the control ([1]; listed as positive control): 25%
CC1=C(/C=C/C(C)=C/C=C/C(C)=C/C=C/C=C(C)/C=C/C=C(C)/C=C/C2=C(C)CCCC2(C)C)C(C)(C)CCC1 [PC (beta-carotene), beta-carotene] | – | – | – | – | – | – | – | – | – | – | – | average Color Index Value ([2]; UVA energy 0 J/cm^2): 100%; average Color Index Value ([2]; UVA energy 1 J/cm^2): 36%; average Color Index Value ([2]; UVA energy 2 J/cm^2): 27%; average Color Index Value ([2]; UVA energy 3 J/cm^2): 23%; average Color Index Value ([2]; UVA energy 4 J/cm^2): 16%; average Color Index Value ([2]; UVA energy 5 J/cm^2): 14%; average Color Index Value ([2]; UVA energy 6 J/cm^2): 13%
Cc1c(C)c2c(c(C)c1O)CCC(C)(C(=O)O)O2 (stereo not shown) [Trolox, reference compound] | – | – | – | – | – | – | – | – | – | – | – | peroxide level, % of the control, endogenous peroxide assay without exogenous H2O2 ([3]; positive control, 300 μM, endogenous peroxide): 69.79%; peroxide level, % of the control, assay with exogenous added peroxide ([3]; positive control, 300 μM, exogenous H2O2 added): 24.97%
FSR [CS2307] | 98.7 | 95.5 | 60.6 | 62.5 | decreased | −8.5 | decreased | −1.5 | decreased | – | – | endogenous peroxide level (as defined by the 25% cutoff), in words ([3]; 1 mM, endogenous peroxide): decreased; % Control (no H2O2), peroxide level ([3]; 10 mM, endogenous peroxide, listed as MNTF 3-mer): 0%; % Control (with H2O2), peroxide level ([3]; 10 mM, exogenous H2O2 added, listed as MNTF 3-mer): 0%
FSRY [CS2308] | 98.6 | 84.5 | 77.2 | 54.9 | decreased | 25.2 | decreased | −5.8 | decreased | – | – | % Control (no H2O2), peroxide level ([3]; 10 mM, endogenous peroxide, listed as MNTF 4-mer): 0%; % Control (with H2O2), peroxide level ([3]; 10 mM, exogenous H2O2 added, listed as MNTF 4-mer): 25.2%
FSRYA [CS2309] | 103.3 | 87.2 | 61.6 | 46.2 | decreased | 3.6 | decreased | −5.9 | decreased | – | – | endogenous peroxide level (as defined by the 25% cutoff), in words ([3]; 1 mM, endogenous peroxide): decreased; % Control (with H2O2), peroxide level ([3]; 10 mM, exogenous H2O2 added, listed as MNTF 5-mer): 0%
FSRYAR [GM602, FSRYAR] | 94.9 | 92.9 | 73.6 | 56.0 | – | 25.0 | – | 14.3 | – | – | – | Cell viability, expressed as % of non-viable, treated versus not treated cells ([3]; keratinocytes, Propidium Iodide staining): about the same
Pal 3 mer: palmitylated form of the MNTF 3 mer (SEQ ID NO:9) (Phe-Ser-Arg; also: palmitoyl group) | 98.7 | 96.1 | 101.1 | 71.9 | decreased | – | – | – | – | 99.4 | 101.0 | –
Pal 4mer: palmitylated form of the MNTF 4 mer (SEQ ID NO:11) (FSRY; also: palmitoyl group) | 96.8 | 96.6 | 81.8 | 67.2 | decreased | – | – | – | – | 97.2 | 102.4 | –
Pal 5 mer: palmitylated form of the MNTF 5 mer (SEQ ID NO:17) (FSRYA; also: palmitoyl group) | 92.8 | 96.0 | 83.6 | 62.2 | decreased | – | – | – | – | 95.3 | 98.6 | –
